“And” between values parts separate entries of the source, which are not always exact repeats. Equal values may be shown once. Read-outs that look alike come from different tables or passages of the source.
How the values were obtained:
influenza A virus = assay: Synergism of MEK inhibitor with Oseltamivir-carboxylate on A549 cells (combination index, CompuSyn); assay type: cell-based
[1] = tested on: A/Mallard/Bavaria/01/2006 (MB1, H5N1); assay type: cell-based, influenza A virus; conditions: MDCK II, MOI 0.001, 24 h treatment, FIG. 6/7
panH1N1 (RB1) = assay type: cell-based, influenza A virus
FPV = assay type: cell-based
colon carcinoma = conditions: oral administration, mouse model; cited from earlier work
A/Anhui/1/2013 (H7N9) = assay: microbe, parasite or virus in culture; assay type: cell-based, influenza A virus
[2] = patients taking oseltamivir; cited from earlier work
[3] = with Oseltamivir-carboxylate, ratio 1:1, A549
[4] = with Oseltamivir-carboxylate, ratio 1:10, A549

With Cn1cnc2c(F)c(Nc3ccc(Br)cc3Cl)c(C(=O)NOCCO)cc21 [AZD-6244] the “CI value at ED75” value (influenza A virus) was 0.2086 and 0.1616, the “CI value at ED90” value (influenza A virus) was 0.2962 and 0.2330 and the “CI value at ED95” value (influenza A virus) was 0.3760 and 0.2993.

With O=C(NOCC1CC1)c1ccc(F)c(F)c1Nc1ccc(I)cc1Cl [CI-1040] the “antiviral potency in cell culture” value [1] was “highly potent”, the antiviral potency (panH1N1 (RB1)) was “potent” and the “CI value at ED75” value (influenza A virus; [3]) was 0.4010. The “CI value at ED90” value (influenza A virus; [3]) was 0.3987, the “CI value at ED95” value (influenza A virus; [3]) was 0.4412 and the antiviral potency (FPV) was “potent”.

In the case of CC(=O)Nc1cccc(-n2c(=O)n(C3CC3)c(=O)c3c(Nc4ccc(I)cc4F)n(C)c(=O)c(C)c32)c1 [GSK-1120212], the “CI value at ED75” value (influenza A virus) is reported as 0.4758, the “CI value at ED90” value (influenza A virus) is reported as 0.4648 and the “CI value at ED95” value (influenza A virus) is reported as 0.4576.

For O=C(NOCC1CC1)c1ccc(F)c(F)c1Nc1ccc(I)cc1Cl [PD184352, 2-(2-chloro-4-iodo-phenylamino)-N-cyclopropylmethoxy-3,4-difluoro-benzamide], the “growth of colon carcinoma” value (colon carcinoma) is listed as “efficiently inhibit”.

In the case of O=C(NOC[C@H](O)CO)c1ccc(F)c(F)c1Nc1ccc(I)cc1F [PD-0325901], the “antiviral potency in cell culture” value [1] is reported as “highly potent”, the antiviral potency (panH1N1 (RB1)) is reported as “potent” and the antiviral potency (FPV) is reported as “potent”.

For CCCS(=O)(=O)Nc1ccc(F)c(C(=O)c2c[nH]c3ncc(-c4ccc(Cl)cc4)cc23)c1F [PLX-4032], the “CI value at ED75” value (influenza A virus; [3]) was 0.3472, the “CI value at ED90” value (influenza A virus; [3]) was 0.4332 and the “CI value at ED95” value (influenza A virus; [3]) was 0.5036. The “CI value at ED75” value (influenza A virus; [4]) was 0.2305, the “CI value at ED90” value (influenza A virus; [4]) was 0.2367 and the “CI value at ED95” value (influenza A virus; [4]) was 0.2413. The antiviral potency (A/Anhui/1/2013 (H7N9); A549, H7N9, FIGS. 13A and B) was “highly potent” and the EC50 (A/Anhui/1/2013 (H7N9); Influenza A virus, H7N9, A549, 24 h) was 12 µM.

For oseltamivir, the “patients experiencing nausea and vomiting” value [2] is listed as 10-15%.

Reference: patent publication US9566281B2 (Westfaelische Wilhelms-Universitaet, priority 2012, dated 2017)
